In patent US9526721B2, “Tetrahydroprotoberbine compounds and uses thereof in the treatment of neurological, psychiatric and neurodegenerative diseases” (priority 2012, dated 2016):
Entries after “also recorded” stand apart in the source; their conditions may differ.

What was measured:
rats [1] = assay: Catalepsy (bar test); assay type: in vivo, rat; conditions: SC; for catalepsy (immobilized contact time): across doses tested
Protocol: Testing occurred in a plexiglas box (28 cm×45 cm×20 cm) containing a horizontal steel bar located 8 cm above floor level. […] After injection animals were returned to the test box and catalepsy testing occurred at 1, 15, 30, and 45 minutes after injection. Testing at each time point lasted 2 min after the forepaws of each rat was placed on the bar. Behavior was recorded with a video camera (Cohu, Poway, Calif.) and scored off-line. The cumulative time spent immobilized with both forelimbs on the horizontal bar was scored for each 2 min test epoch. Videos selected at random were scored independently by a second observer and a high inter-rater reliability was observed (R^2=0.93, F=393.4, p<0.05).
Catalepsy testing was conducted as described in Example 12.

5HT6 = molecular target: T1, 5HT6 (Homo sapiens, UniProt P50406); assay: Receptor binding, 5HT6; conditions: CHO cells
T1 construct: host or cells: CHO cells
T1 sequence (P50406 whole entry, species assumed): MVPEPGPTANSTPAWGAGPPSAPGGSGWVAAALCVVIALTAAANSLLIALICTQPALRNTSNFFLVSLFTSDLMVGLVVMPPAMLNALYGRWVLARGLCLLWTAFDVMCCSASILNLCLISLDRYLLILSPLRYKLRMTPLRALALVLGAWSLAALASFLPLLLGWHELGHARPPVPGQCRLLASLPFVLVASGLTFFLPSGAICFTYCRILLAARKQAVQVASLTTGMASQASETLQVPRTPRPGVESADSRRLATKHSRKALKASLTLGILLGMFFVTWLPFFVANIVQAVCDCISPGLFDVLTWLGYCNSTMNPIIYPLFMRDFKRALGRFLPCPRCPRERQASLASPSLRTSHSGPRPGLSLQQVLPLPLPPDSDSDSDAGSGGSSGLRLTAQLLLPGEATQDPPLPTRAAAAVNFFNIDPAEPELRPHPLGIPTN
Protocol: (§1) All receptors tested were heterologously expressed CHO cells and IC50 values were determined by a non-linear, least squares regression analysis using MathIQ (ID Business Solution Ltd, UK). Ki was calculated using the equation of Cheng and Prusoff (1973, Biochem. Pharmacol 22:23099-3108) derived from the observed IC50 of the tested compound, the concentration of radioligand employed in the assay, and the historical values for the Kd of the ligand (obtained experimentally at MDS Pharma Services).

rats [2] = assay: Conditioned avoidance responding (CAR); conditions: SC, 100 CS-US pairings
Protocol: Conditioned avoidance responding (CAR) was performed in a two-way avoidance procedure with drug naive rats in four shuttle boxes (Med Associates, Vt., USA) each consisting of two compartments separated by an open door. Each compartment contained a wall-mounted speaker, house light and 5 photocells to detect the location of the animal. All experimental protocols and data acquisition were controlled by custom programs written in MED-PC.
Before training, each animal received two acclimation sessions lasting 30 min with only the house light illuminated. […] Pairings of the conditioned stimulus (CS) (white noise, ˜60 dB) and the unconditioned stimulus (US) (footshock, 0.75 mA) were presented at random intervals with a mean of 60 sec. The CS was presented for 10 sec. During this time, if the animal moved to the opposite side of the box, the white noise was silenced, no foot shock delivered, and an avoidance response was scored. Upon termination of the 10 sec tone, if the animal had not moved to the opposite side of the box, a foot-shock was administered for 2 sec. […] Failure to avoid or escape constituted a response failure and was scored accordingly. After reaching a criterion of 90% avoidances for a block of 20 trials, usually achieved with ˜100 CS-US pairings, each animal advanced to the drug-testing phase. Animals not meeting the criterion by 120 pairings were excluded from the study.
Pairings were presented just as during training and were scored in the same fashion. The test trial consisted of 100 CS-US pairings.

rats [3] = assay: Social interaction in NVHL and sham rats; assay type: in vivo, rat; conditions: 1.0 mg/kg IP 15 minutes prior to testing
Text: Experimental rats were neonatal ventral hippocampal lesioned (NVHL) and control (Sham) animals. […] The SI environment consisted of a 83×90×30 cm open field with each surface painted black.

5HT2A = molecular target: T2, 5HT2A (Homo sapiens, UniProt P28223); assay: Receptor binding, 5HT2A; conditions: receptor expressed in CHO cells
T2 construct: host or cells: CHO cells
T2 sequence (P28223 whole entry, species assumed): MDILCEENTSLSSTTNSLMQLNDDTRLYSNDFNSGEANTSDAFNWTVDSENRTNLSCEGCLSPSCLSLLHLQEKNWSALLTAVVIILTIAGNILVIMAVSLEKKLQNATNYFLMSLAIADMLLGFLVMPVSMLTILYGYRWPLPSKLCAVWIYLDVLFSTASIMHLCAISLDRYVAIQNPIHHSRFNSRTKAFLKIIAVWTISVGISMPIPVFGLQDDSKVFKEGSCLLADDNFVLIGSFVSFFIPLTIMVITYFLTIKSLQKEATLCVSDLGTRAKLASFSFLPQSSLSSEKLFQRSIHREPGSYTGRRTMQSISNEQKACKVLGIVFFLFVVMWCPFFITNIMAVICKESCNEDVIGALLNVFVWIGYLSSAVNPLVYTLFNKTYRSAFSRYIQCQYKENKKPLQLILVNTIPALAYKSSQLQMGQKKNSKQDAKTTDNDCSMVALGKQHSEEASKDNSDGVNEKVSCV
Protocol: as §1
as §1, with “receptors” for “receptors tested”, “UK). K1” for “UK). Ki”, “calculated (Y.” for “calculated using the equation of”, “Cheng &” for “Cheng and”, “Prusoff 1973)” for “Prusoff (1973, Biochem. Pharmacol 22:23099-3108) derived”

rats [4] = assay: Latent inhibition; assay type: in vivo, rat; conditions: treatment before each pre-exposure; 1.0 mg/kg d-AMPH before conditioning
Protocol: Sensitization: Animals were removed from the colony and taken to a holding room where they received either IP d-AMPH or saline every Monday, Wednesday, and Friday. Doses started at 1 mg/kg and increased 1 mg/kg each week over 5 weeks to 5 mg/kg. 25 days after the induction phase, behavioral sensitization was assessed over 3 days in locomotor chambers (plexiglass box, 40 cm×40 cm×40 cm) where speed and distance traveled were recorded using Noldus Ethovision XT (Noldus, Leesburg, Va.). The first day consisted of a 2 hr acclimation session, and prior to counter balanced injections of either 0.5 mg/kg d-AMPH or saline on days 2 and 3 animals were acclimated for 1 hr. Experiments were run in two separate cohorts of 30 animals to minimize the time between testing sensitization and LI.
Latent Inhibition: LI tests were performed in rats treated with 1.0 mg/kg acute d-AMPH, sensitized rats, and drug-naive rats. LI testing began 5 days post-challenge of the escalating dose regime. Animals in both conditions (chronic saline or sensitized) were randomly assigned to either non-pre-exposed (NPE) or pre-exposed (PE) groups. Testing took place over 3 consecutive days. […] Animals in the PE group received 50 presentations of the CS (10 sec duration) per day at a variable interval for the first two days. Animals in the NPE group were placed in the chamber for an equal time as the PE animals. Conditioning (COND) consisted of 100 CS-US pairings. Latency to cross into the other compartment and the number of total beam breaks were recorded. Drug-naïve animals receiving acute 1.0 mg/kg AMPH were injected IP 45 min before the COND trial.
The effects of the two individual enantiomers of govadine on latent inhibition (LI) were also tested as described in Example 12.

[5] = tested on: midbrain dopamine (DA) neurons; assay: Firing of midbrain dopamine neurons in slices (cell-attached recording); assay type: cell-based, Sprague Dawley rats; conditions: co-application with Quinpirole (500 nM)
Protocol: Horizontal midbrain slices (220 μm) were prepared from male Sprague Dawley rats (3-4 weeks old). Cell-attached voltage-clamp recordings were used to examine tonic firing rate of DA neurons at 31-32° C. using patch pipette and bathing solutions consisting of physiological saline. Putative DA neurons were identified by spontaneous pacemaker firing (1-3 Hz) with broad APs (≧2.0 ms). Identified cells not responsive to Quinpirole (500 nM), a D2 DA receptor agonist, were excluded from further recording. Cells were also filled with biocytin or Alexa for posthoc-identification using TH immunostaining.

rats [6] = assay: Temporal order recognition (radial arm maze); conditions: for Arm Entries / Distance Travelled: 1.0 mg/kg govadine isomers, 5.0 mg/kg clozapine; for temporal order effect: injected 15 min before test trial
Protocol: The task exploits a rat's natural preference for novel locations. Each animal received 3 separate trials where access to two arms of an eight arm radial arm maze was granted. During the first trial, two arms were selected at random for exploration, and animals were allowed to explore these arms for 2 min After this time, they were taken off the maze and returned to their home cage. 1 hour later they were placed back on the maze and two new arms were randomly selected for 2 min of exploration.
Time spent in each arm (recent and old) was recorded as well as total distance traveled and the total number of arm entries in Noldus EthoVision 3.1 (Leesburg, Va.).

rats [7] = assay: Microdialysis of prefrontal cortex and nucleus accumbens; conditions: for 5-HIAA in NAc / DOPAC in NAc / HVA in NAc / dopamine level in NAc / 5-HIAA in PFC / DOPAC in PFC / HVA in PFC / dopamine level in PFC: microdialysis; for 5-HIAA in NAc / DOPAC in NAc / HVA in NAc / dopamine level in NAc: nucleus accumbens; for 5-HIAA in PFC / DOPAC in PFC / HVA in PFC / dopamine level in PFC: prefrontal cortex;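 for all read-outs here: dialysate collected every 10 min from freely moving rats, analysed by HPLC with electrochemical detection, after four stable baseline samples (under 10% variation) preceding drug dosing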
Protocol: Rats received subcutaneous injections of an analgesic (ketoprofen 0.05 mL or buprenorphine, 0.1 mL) and sterile saline (0.9% NaCl, ˜3 mL). Once shaved and cleaned, the heads were secured in the stereotaxic frame in flat skull position for bilateral implantation of stainless steel microdialysis guide cannulae (19 gauge×15 mm) in the nucleus accumbens (NAc) (from bregma +1.7 mm anterior and ±1.1 mm medial; from dura −1.0 mm ventral) or medial prefrontal cortex (mPFC) (+3.0 mm anterior, ±0.6 mm medial; −1.0 mm ventral). […] Rats were allowed to rest with heat support until they regained consciousness, and then given a one-week recovery period.
Microdialysis probes were assembled 1-2 days prior to microdialysis experiments. Probes were concentric in design, constructed from Filtral 12 AN69HF semi-permeable hollow fibres (2 mm length, 340 μm OD×4 mm, 65 kDalton molecular weight cut-off; Hospal, Neurnberg, Germany) and silica inlet-outlet lines (75/150 um ID/OD).
The day prior to microdialysis experiments, probes were connected to an Instech dual-channel liquid swivel (Plymouth Meeting, Pa.) and flushed with artificial cerebrospinal fluid (aCSF). […] Following DA recovery tests, probes were implanted via the guide cannulae (dialysis membrane spanned −4.8 to −6.8 mm ventrally for NAc; −1.6 to −3.6 mm for mPFC). Rats remained in the testing chamber overnight (14-16 hr) with aCSF perfusing continuously through the probes at 1 μL/min In the morning, microdialysis samples were collected at 10 min intervals and assayed for DA, DOPAC, homovanillic acid (HVA) and 5-HIAA content. Once baseline levels were determined to be stable for four consecutive samples (less than 10% fluctuation), the drug treatment phase of each experiment was initiated.
Microdialysis samples were analyzed immediately after collection using high pressure liquid chromatography (HPLC) with electrochemical detection. […] The mobile phase [70 mM sodium acetate buffer, 40 mg/L EDTA and 50 mg/L of sodium dodecyl sulfate (adjustable), pH 4.0, 10% methanol] flowed through the system at 0.17 mL/min EZChrome Elite software (Scientific Software, Pleasanton, Calif.) was used to acquire and analyze chromatographic data.
After the experiments, rats were deeply anesthetized, brains were removed and stored in 20% w/v sucrose and 4% v/v paraformaldehyde. Brains were sliced into 50 um coronal sections, stained with cresyl violet and examined for probe placement.
Microdialysis probes (2 mm active membrane) were implanted in the NAc and mPFC ˜16 hrs prior to start of the experiment and continuously perfused aCSF.

D5 = molecular target: T3, D5 (Homo sapiens, UniProt P21918); assay: Receptor binding, dopamine D5; conditions: receptor expressed in CHO cells
T3 construct: host or cells: CHO cells
T3 sequence (P21918 whole entry): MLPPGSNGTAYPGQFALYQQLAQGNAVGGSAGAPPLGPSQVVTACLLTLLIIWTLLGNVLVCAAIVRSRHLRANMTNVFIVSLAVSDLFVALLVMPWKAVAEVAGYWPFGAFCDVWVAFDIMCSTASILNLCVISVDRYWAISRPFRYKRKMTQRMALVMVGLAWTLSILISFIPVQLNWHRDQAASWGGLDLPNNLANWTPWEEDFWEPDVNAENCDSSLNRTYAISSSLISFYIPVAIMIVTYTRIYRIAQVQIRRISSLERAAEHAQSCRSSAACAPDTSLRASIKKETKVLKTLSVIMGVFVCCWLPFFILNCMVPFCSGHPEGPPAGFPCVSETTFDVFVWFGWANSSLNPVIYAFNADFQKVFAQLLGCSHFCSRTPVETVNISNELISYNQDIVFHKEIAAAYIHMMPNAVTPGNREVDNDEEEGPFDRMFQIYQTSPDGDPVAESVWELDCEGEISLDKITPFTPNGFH
Protocol: All receptors tested were heterologously expressed CHO cells and IC50 values were determined by a non-linear, least squares regression analysis using MathIQ (ID Business Solution Ltd, UK).
All receptors were heterologously expressed CHO cells and IC50 values were determined by a non-linear, least squares regression analysis using MathIQ (ID Business Solution Ltd, UK).

Compound | catalepsy (immobilized contact time) (rats [1]) | inhibition at 10 µM (5HT6) [%] | social interaction in NVHL rats versus Sham controls (rats [3]) | Ki (5HT2A) [µM] | latent inhibition in acute d-AMPH-treated animals (rats [4]) | Arm Entries (rats [6]; 45 min. delay) | Distance Travelled (rats [6]; 45 min. delay) | temporal order effect (rats [6]; 45 min delay) | temporal order effect (rats [6]; 4 hr delay) | Arm Entries (rats [6]; 4 hr. delay) | Distance Travelled (rats [6]; 4 hr. delay) | 5-HIAA in NAc (rats [7]) | DOPAC in NAc (rats [7]) | HVA in NAc (rats [7]) | dopamine level in NAc (rats [7]) | 5-HIAA in PFC (rats [7]) | DOPAC in PFC (rats [7]) | HVA in PFC (rats [7]) | dopamine level in PFC (rats [7]) | other results
COc1cc2c(cc1O)CN1CCc3cc(OC)c(O)cc3[C@@H]1C2 [l-govadine] | Catalepsy was observed | 12 | comparable levels of SI | 11.1 | restored LI | 3.67 ± 1.9 | 587.7 ± 109 | abolished | no temporal order effect | 3.5 ± 0.9 | 824 ± 135 | No increase | increase | increase | increased | No increase | increase | increase | increased | time of peak cataleptic behavior post injection (rats [1]): 15 min; suppression of conditioned avoidance responding (avoidances) (rats [2]): Suppression of conditioned avoidance responding was observed; also recorded: suppresses CAR; antagonism of D2 autoreceptor-mediated decrease in tonic firing [5]: antagonized; DA efflux in NAc and mPFC compared to control (rats [7]; 1 mg/kg, Example 15): enhanced DA efflux
COc1cc2c(cc1O)CN1CCc3cc(OC)c(O)cc3[C@H]1C2 [d-govadine] | No evidence of catalepsy | 9 | comparable levels of SI | 11.8 | restored LI | 14.8 ± 1.9 | 2433 ± 363 | abolished | restored temporal order recognition | 11 ± 1.1 | 2091 ± 114 | not the NAc | no increase observed | no increase observed | not in the NAc | increased | increased | increased | selectively increased | Ki (D5): 0.0134 µM
